Molecules are shown by their SMILES. Active and inactive are the calls of the source. No rule for the calls is given here.

In this experiment the target is Steroidogenic factor 1 (Homo sapiens) (UniProt Q13285). Nature of the experiment: SF1 (NR5A1) inverse agonist potency, late-stage follow-up, selectivity assay for LRH-1 inverse agonist project, cell-based, luminescence, dose response (AID 651977). Particulars: SF1 cell-based luciferase reporter, inverse agonism. (A reporter such as luciferase makes a cellular process visible.)
Steroidogenic factor 1 (Homo sapiens), sequence (Q13285 whole entry, looked up): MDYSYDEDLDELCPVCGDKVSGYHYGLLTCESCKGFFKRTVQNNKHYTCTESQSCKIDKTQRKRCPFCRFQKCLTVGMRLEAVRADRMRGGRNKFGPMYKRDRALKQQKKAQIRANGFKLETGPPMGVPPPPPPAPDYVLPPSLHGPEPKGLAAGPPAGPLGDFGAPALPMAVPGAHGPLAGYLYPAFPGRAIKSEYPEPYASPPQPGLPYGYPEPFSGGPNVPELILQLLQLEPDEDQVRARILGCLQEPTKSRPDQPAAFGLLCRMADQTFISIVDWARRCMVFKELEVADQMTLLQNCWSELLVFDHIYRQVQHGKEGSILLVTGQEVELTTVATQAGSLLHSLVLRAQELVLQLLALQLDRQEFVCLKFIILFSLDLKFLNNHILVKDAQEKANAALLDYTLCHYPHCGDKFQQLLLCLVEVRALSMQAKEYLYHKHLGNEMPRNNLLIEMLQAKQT
The term IC50 denotes the concentration that gives 50% inhibition. With `COCC(=O)NC1CCN(CC(=O)Nc2ccc(OC)cc2[N+](=O)[O-])CC1`, the IC50 was > 35.9 µM (inactive). Next, `COc1ccc(C2(C)NC(=O)N(CC(=O)NCCC3=CCCCC3)C2=O)cc1OC` (stereo not drawn): > 12 µM (inactive); `COc1ccc(CCNC(=O)COC(=O)C23CC4CC(CC(C4)C2)C3)cc1`: 4.42 µM.

On to `CC(=O)c1ccc(NC(=O)C(C)O/N=C(\N)c2ccccc2)cc1` (stereo not drawn), for which the IC50 result is “inactive”. For `O=C(COC(=O)CCN1C(=O)C2CC=CCC2C1=O)NCCc1ccc(F)cc1` (stereo not drawn), the IC50 is > 35.9 µM (inactive). Next, `O=C(Nc1ccc(Br)cn1)c1ccc([N+](=O)[O-])o1`: > 35.9 µM (inactive); `COCCn1c(C)cc(/C=C(\C#N)C(=O)OCC(=O)Nc2ccc(S(N)(=O)=O)cc2)c1C`: > 35.9 µM (inactive); `COC(=O)c1ccc(NC(=O)CSc2nncn2-c2cccnc2)cc1`: > 35.9 µM (inactive). Next, `O=C(Nc1nc2c(Cl)cccc2s1)c1ccc([N+](=O)[O-])o1`: > 12 µM (inactive); `Cc1cccc(NC(=O)COC(=O)Cc2cccs2)c1C`: > 35.9 µM (inactive). Next, `COC(=O)c1ccc(NC(=O)CSc2ccc(-c3ccccn3)nn2)cc1`: > 35.9 µM (inactive); `COc1ccc(CCNC(=O)COC(=O)Cc2ccccc2[N+](=O)[O-])cc1`: > 12 µM (inactive).

As for `O=C(OCC(=O)N1CCN(C(=O)COC(=O)c2ccc(O)cc2O)CC1)c1ccc(O)cc1O`, the IC50 is 3.55 µM. For `Cc1ccn2c(=O)nc(SCC(=O)Nc3ccc4c(c3)OCCO4)nc2c1`, the IC50 is > 35.9 µM (inactive). For `Cc1ccc(-c2csc(NC(=O)c3ccc([N+](=O)[O-])o3)n2)cc1` the value was > 35.9 µM (inactive); for `COc1ccc(NC(=O)COC(=O)c2c(-c3ccccc3)noc2C)cc1`, 3.19 µM.

`O=C(COC(=O)c1ccc[n+]([O-])c1)Nc1ccc([N+](=O)[O-])cc1Cl`: the IC50 is > 35.9 µM (inactive). As to `CCCc1nnc(SCC(=O)Nc2ccc(C(=O)OCC)cc2)o1`, the IC50 is > 35.9 µM (inactive). Next, `O=C(COC(=O)c1ccc(=O)n(Cc2ccccc2)n1)Nc1ccc2c(c1)OCCO2`: > 35.9 µM (inactive). `CCCN(CC(=O)Nc1ccc(C(C)=O)cc1)CC(=O)Nc1ccccc1C`: the IC50 result was “inactive”.

Consider `COC(=O)c1ccc(CNC(=O)COC(=O)c2cc(Cl)nc(Cl)c2)cc1`, for which the IC50 entry was “inactive”. For `COC(=O)c1ccc(NC(=O)CSc2nn3c(=O)c(C)nnc3s2)cc1` the value was > 35.9 µM (inactive). `CC(=O)c1ccc(OC(C)C(=O)OCC(=O)NCCc2ccccc2)cc1` (stereo not drawn): the IC50 was > 35.9 µM (inactive).

Turning to `COc1ccc(-n2c(N)c(C(=O)NCc3cccnc3)sc2=S)cc1`, the IC50 is > 35.9 µM (inactive). For `CCc1c(C)nc(SCC(=O)Nc2ccc3c(c2)OCCO3)[nH]c1=O` the value was 7.83 µM; for `COc1ccc(NC(=O)COC(=O)c2cc(S(=O)(=O)N3CCCC3)ccc2O)cc1`, > 35.9 µM (inactive).

On to `COC(=O)c1ccc(NC(=O)CSc2nc3ncccc3[nH]2)cc1`, for which the IC50 was > 35.9 µM (inactive).

Take `COc1ccc(NC(=O)CN2C(=O)NC3(CCCC3)C2=O)cc1`: the IC50 is > 35.9 µM (inactive). For the compound `CCOc1ccc(NC(=O)CSc2nc3[nH]ncc3c(=O)[nH]2)cc1`, the IC50 is > 35.9 µM (inactive). For `CCOc1ccc(NC(=O)CN2CCN(CC(=O)Nc3ccc(OC)cc3)CC2)cc1` the value was > 35.9 µM (inactive). For `Cc1ccc(NC(=O)COC(=O)C(NS(=O)(=O)c2ccc(Cl)cc2)C(C)O)cc1C` (stereo not drawn), the IC50 is 2.28 µM. For `Cc1cc(C)c2nc(NC(=O)c3ccc([N+](=O)[O-])o3)sc2c1` the value was > 35.9 µM (inactive); for `O=C(CSc1nc(=O)n2cc(Cl)ccc2n1)Nc1ccc2c(c1)OCCO2`, “inactive”. Turning to `O=c1[nH]c(Nc2ccc3c(c2)OCCO3)nnc1Cc1ccccc1`, the IC50 is > 12 µM (inactive). For `CCOc1ccc(NC(=O)COC(=O)CC2CCCCC2)cc1` the value was > 35.9 µM (inactive); for `COc1ccc(NC(=O)CSc2sc3c(O)cc(=O)[nH]c3c2C#N)c(OC)c1`, > 35.9 µM (inactive); for `CCCc1cc(=O)oc2cc(C)cc(OCC(=O)NC3CC3)c12`, 2.67 µM. For `CCOc1ccc(NC(=O)COC(=O)COc2cccc3c2OC(C)(C)C3)cc1`, the IC50 was > 35.9 µM (inactive). In the case of `CCc1cc(=O)[nH]c(SCC(=O)Nc2ccc3c(c2)OCCO3)n1`, the IC50 was > 35.9 µM (inactive). As to `NC(=O)C1CCN(C(=O)COc2ccc3c4c(c(=O)oc3c2)CCCC4)CC1`, the IC50 was > 35.9 µM (inactive).

For the compound `CC1SC(C)C(=O)N(CC(=O)Nc2ccc3c(c2)OCO3)C1=O` (stereo not drawn), the IC50 is > 35.9 µM (inactive).

Regarding `Cc1cc(Br)ccc1NC(=O)CN1C(=O)C2CC=CCC2C1=O` (stereo not drawn), the IC50 is 0.351 µM.

As to `Cc1cc(C)c2sc(NC(=O)c3ccc([N+](=O)[O-])o3)nc2c1`, the IC50 was > 35.9 µM (inactive). With `CCn1c(SCC(=O)Nc2ccc(Cl)cc2)nnc1C1CC1`, the IC50 is > 35.9 µM (inactive).

As to `O=C(CSc1nnc(CNC(=O)c2ccccc2F)o1)Nc1ccc2c(c1)OCCO2`, the IC50 is > 35.9 µM (inactive). For `COc1ccc(NC(=O)CSc2nnc3ccc(-c4cccnc4)nn23)cc1OC` the value was 1.59 µM; for `COc1ccc(NC(=O)CSc2ccc3c(c2)OCCO3)cc1`, > 35.9 µM (inactive). For the compound `CC(=O)Nc1ncc(Cc2cc(Cl)ccc2Cl)s1`, the IC50 entry is “inactive”. Regarding `COc1ccc(CCNC(=O)CSc2nn3c(=O)c(C)nnc3s2)cc1OC`, the IC50 is 5.7 µM. For `Cc1cc(Br)ccc1NC(=O)CSc1nnc(CN2CCOCC2)n1C` the value was > 35.9 µM (inactive); for `O=C(COc1ccc2c3c(c(=O)oc2c1)CCC3)NCc1ccncc1`, > 35.9 µM (inactive).

Turning to `O=C(COc1ccc2c3c(c(=O)oc2c1)CCCC3)NCc1ccccn1`, the IC50 was > 35.9 µM (inactive). Next, `CCCc1cc(=O)oc2c(C)c(OCC(=O)NCCCn3ccnc3)ccc12`: 6.68 µM. `Cc1cc(=O)oc2c(C)c(OCC(=O)NC3CC(C)(C)NC(C)(C)C3)ccc12`: the IC50 is > 35.9 µM (inactive).

On to `Cc1ccc(NC(=O)CSc2nc3[nH]c(=O)cc(O)c3s2)c(Br)c1`, for which the IC50 was > 35.9 µM (inactive). For `O=C(CSc1nnc(CNC(=O)c2c(F)cccc2F)o1)Nc1ccc2c(c1)OCCO2` the value was “inactive”; for `O=C1CCCN2N=C(SCC(=O)Nc3ccc(Br)cc3)SC2=N1`, > 35.9 µM (inactive); for `COc1ccccc1Oc1nnnn1-c1ccc(C(N)=O)cc1`, “inactive”. Turning to `Cc1ccc(NC(=O)COC(=O)c2cc(=O)c3ccccc3o2)c(Br)c1`, the IC50 was > 35.9 µM (inactive). In the case of `COc1ccc(CCNC(=O)CSc2ccc(NC(C)=O)cc2)cc1OC`, the IC50 is 8.79 µM.

For the compound `O=C(NCC1CCCO1)c1ccc(NC(=O)c2cccc([N+](=O)[O-])c2)cc1` (stereo not drawn), the 50% inhibitory concentration (IC50) was 1.02 µM. Next, `O=C(Nc1ccc(S(=O)(=O)N2CCOCC2)cc1)c1cccc([N+](=O)[O-])c1`: > 12 µM (inactive); `COc1ccc(NC(=O)CSc2nc(N)c(-c3ccccc3)c(=O)[nH]2)cc1`: 9.92 µM; `O=C(NCc1ccco1)c1nn(-c2ccccc2)c(=O)c2ccccc12`: > 35.9 µM (inactive). For `Cc1ccc2cccc(OCC(=O)NCCC3=CCCCC3)c2n1` the value was 2.22 µM; for `CCOc1ccc(NC(=O)COC(=O)c2ccc3c(c2)OCCO3)cc1`, > 12 µM (inactive). Next, `Cc1ccc(NC(=O)CSc2sc3c(O)cc(=O)[nH]c3c2C#N)c(F)c1`: > 35.9 µM (inactive). With `CCCc1cc(=O)oc2cc(OCC(=O)NCCc3ccc(S(N)(=O)=O)cc3)ccc12`, the IC50 result is “inactive”. For `CCOc1ccc(NC(=O)CSc2nncc(=O)n2N)cc1` the value was > 35.9 µM (inactive); for `CCOc1ccc(OCCC(=O)OCC(=O)Nc2ccc3c(c2)OCCO3)cc1`, > 35.9 µM (inactive); for `COc1ccc(NS(=O)(=O)c2ccc(OCC(=O)N3CCN(C)CC3)cc2)cc1Cl`, 9.99 µM. Regarding `CCOc1ccc(OCCN2C(=O)NC(Cc3c[nH]c4ccccc34)C2=O)cc1` (stereo not drawn), the IC50 entry is “inactive”. For `COC(=O)c1ccc(NC(=O)CN2CCN(c3ccc(Cl)cc3)CC2)cc1`, the IC50 is > 35.9 µM (inactive). As for `Cc1cc(OCC(=O)Nc2nccs2)c2c(C)cc(=O)oc2c1`, the IC50 is > 35.9 µM (inactive).

Turning to `CCCc1cc(=O)oc2c(C)c(OCC(=O)NCCN3CCOCC3)ccc12`, the IC50 is 5.64 µM. For `CCc1cc(=O)oc2c(C)c(OCC(=O)NCCN3CCOCC3)ccc12` the value was “inactive”; for `COC(=O)c1ccc(NC(=O)COc2cccc(-n3cnnn3)c2)cc1`, > 12 µM (inactive); for `CC(=O)Nc1ccc(N=c2cc([N+](=O)[O-])cc(Cl)n2O)cc1`, > 12 µM (inactive). For the compound `CCOc1ccc(NC(=O)CSc2nnc(C(C)C)n2CC)cc1`, the IC50 was > 35.9 µM (inactive).

As for `O=C(Nc1ccccc1)c1oc2ccccc2c1NC(=O)C1CC1`, the IC50 result was “inactive”.

For the compound `COc1ccc(CCNC(=O)CSc2nc3[nH]c(=O)cc(O)c3s2)cc1`, the IC50 is > 35.9 µM (inactive).

For `COc1ccc(CCNC(=O)COC(=O)c2cccn2C)cc1`, the IC50 is > 35.9 µM (inactive). For `Cc1ccc(NC(=O)COC(=O)C(NS(=O)(=O)c2ccc(Cl)cc2)C(C)O)c(Br)c1` (stereo not drawn) the value was > 35.9 µM (inactive); for `Cc1sc(NC(=O)C(C)C)c(C(=O)Nc2ccccc2)c1C`, 9.22 µM; for `COc1ccc(CCNC(=O)COC(=O)c2cc(Cl)nc(Cl)c2)cc1`, > 35.9 µM (inactive).

As for `Cc1nn(CC(=O)Nc2ccc3c(c2)OCCO3)c(C)c1[N+](=O)[O-]`, the IC50 is > 35.9 µM (inactive). `Cc1cccc(NC(=O)COC(=O)CN2C(=O)c3ccccc3C2=O)c1C`: the IC50 is > 35.9 µM (inactive). In the case of `CCCc1cc(=O)oc2cc(OCC(=O)NCc3ccccn3)ccc12`, the IC50 was > 35.9 µM (inactive).
